Source: patent US8481521B2, “Methods of treating cell proliferative disorders” (Rigel Pharmaceuticals, Inc., priority 2005, dated 2013)
“Also recorded” adds a separate entry of the source.

Tests used:
[1] = Solubility of drug and phosphate prodrug; format: physicochemical; conditions: water solubility; read-out: Solubility
Text: In contrast, Compound 4 is highly polar at neutral pH. Measured solubility values are consistent with the predicted cLogD values at pH=7.5.

Flt-3 = Flt-3 phosphorylation in MV4-11 tumor lysates (immunoprecipitation, Western blot); format: in vivo, human; conditions: 40 mg/kg VII, about two hours after final dose, vs vehicle
Protocol: Panel A is detection of phosphorylated Flt-3 in MV4-11 tumor lysates from mice approximately two hours after the final dose of VII or vehicle using anti-phosphotyrosine antibody on the left and anti-phospho-Flt-3 specific antibody on the right side of the blot. Additionally, a reprobe of the blot for the total Flt-3 levels are shown in Panel B.
Western blot analysis of phosphorylated Flt-3 was carried out as follows.
3. Weigh and normalize in 250 mg/l ml ice-cold RIPA buffer (Santa Cruz Biotechnology, sc-24948) containing protease inhibitor and phosphotase inhibitor cocktail (Sigma, P5726, 1 ml/100 ml lysis buffer).
Immunoprecipitation. • 1. Take 1 mg tumor lysate and add primary antibody 2 ug (Anti-Flt-3 S18, Santa Cruz, #sc-480) adjust volume to 500 ul with lysis buffer. Incubate with gentle rocking for 1 h at 4° C. • 2. Add protein A/G plus-agarose beads (Santa Cruz, SC-2003) 40 ul. Incubate with gentle rocking for 1 h at RT. • 3. Microcentrifuge for 30 second at 4° C. Wash pellet three times with 500 ul of 1× lysis buffer. Keep on ice during washes. • 4. Resuspend the pellet with 30 ul 2× Tris-Glysine SDS loading buffer+5 ul reducing agent 10× (Invitrogen). • 5. Heat the sample to 95-100° C. for 5 minutes. • 6. Store the sample at −80° C.
Western Blot Procedure. • 1. Load 20 ul of the sample on 8% Tris-Glysine gel. • 2. Run in 1× Tris-glysine SDS running buffer. • 3. […]

[2] = tested on: phosphorylated histone H3 (phH3); test: Phosphorylated histone H3 immunohistochemistry of MV4-11 tumor xenografts; format: in vivo, human; conditions: vs vehicle treated MV4-11 xenografts
Protocol: Proliferation was assessed ex vivo in formalin fixed tumor sections from three randomly selected mice from this study using immunohistochemical staining of human-specific phosphorylated histone H3 (phH3) as a marker for tumor cell proliferation. Human phH3 expression was reduced in tumor sections in a dose-dependent manner following treatment with VII.

pErk1/2 and pStat5 = test: Immunohistochemical staining for pErk1/2 and pStat5 in MV4-11 tumor sections; format: in vivo; conditions: 40 mg/kg VII, 26 days
Protocol: Tumors were harvested from mice ˜2 hours following final dose of vehicle or 40 mg/kg VII.

[3] = Pharmacokinetics / oral bioavailability in Sprague-Dawley rats; format: in vivo
Protocol: Prodrug Compound 4 was tested for oral bioavailability. For the study, the prodrug was dissolved in various vehicles (e.g. PEG 400 solution and CMC suspension) for intravenous and oral dosing in the rats. […] Following administration of the prodrug and/or drug, plasma samples were obtained and extracted. The plasma concentrations of the prodrug and/or drug were determined by high performance liquid chromatography/tandem mass spectrometry (LC/MS/MS) methods. Pharmacokinetic analyses were performed based on the plasma concentration data. The pharmacokinetic parameters of interest include Clearance (CL), Volume of distribution at steady-state (Vss), terminal half-life (t1/2), and oral bioavailability (% F).
Referring to FIG. 16, PK profiles are shown for IV and PO administration in Spraque-Dawley rats. For IV administration, Compound 4 was dissolved in PEG-400 and administered at a dose of 1 mg/kg.
FIG. 17 summarizes the PK parameters for the study described in FIG. 4.
FIG. 23 illustrates the absorption of prodrug Compound 4 from different vehicles.

[4] = Stability under acidic and neutral conditions; format: physicochemical; conditions: 37° C.
[5] = Conversion of prodrug to drug in microsome preparations; format: in vitro ADME, rat
Text: (§1) Although phosphate-containing prodrugs suitable for oral administration are of interest, skilled artisans will appreciate that prodrugs including phosphate-containing progroups R^P can be administered via other routes of administration, as phosphatases are distributed throughout the body. […] Thus, the only requirement is that the particular phosphate-containing progroup R^P selected should be removable under the conditions of intended use.

[6] = Stability of prodrug in rat plasma; format: in vitro ADME
Text: as §1
The presence of Phosphatase activity in rat plasma was confirmed using p-nitrophenyl phosphate—a known substrate for phosphatase.

## COc1cc(Nc2ncc(F)c(Nc3ccc4c(n3)N(COP(=O)(O)O)C(=O)C(C)(C)O4)n2)cc(OC)c1OC [Compound 4, N4-(2,2-dimethyl-4-[(dihydrogenphosphonoxy)methyl]-3-oxo-5-pyrido[1,4]oxazin-6-yl)-5-fluoro-N2-(3,4,5-trimethoxyphenyl)-2,4-pyrimidinediamine]
[1]
  solubility: > 5000 µg/mL
Flt-3
  Constitutive phosphorylation of Flt-3 in tumors: reduced
[2]; 20 mg/kg VII
  inhibition of phH3 staining: 53%
[2]; 40 mg/kg VII
  inhibition of phH3 staining: 71%
pErk1/2 and pStat5
  STATS and ERK1/2 phosphorylation in tumor sections: reduced
[3]; 1 mg/kg IV in PEG-400
  prodrug in plasma after IV administration: Rapid disappearance
[3]; PEG-400, CMC, powder in hard gelatin capsules
  absorption from different vehicles: absorbed equally well
[3]; PO in PEG-400
  plasma levels of drug metabolite Compound III after oral prodrug: high levels
  prodrug present systemically after oral administration: no prodrug Compound 4 was present systemically
[3]; oral Compound III 2.5 mg/kg or Compound 4 4 mg/kg in PEG-400
  AUC/dose of drug Compound III exposure: nearly identical
[4]
  stability under acidic and neutral conditions: stable
[5]; microsomes from a different source
  conversion to drug Compound III in intestinal and hepatic microsomes: metabolize to the active drug Compound III; also recorded: conversion of Compound 4 to Compound III was observed
[5]; preparations obtained from Xenotech
  conversion to drug Compound III in microsomal preparations: failed to convert
[6]
  stability in rat plasma (hydrolysis to Compound III): metabolize to the active drug Compound III; also recorded: unstable
